Where no end group is shown, it is not given here.

Assay [1] relates to WT mice. Briefly: Chronic ICV injection of OX2R agonist in WT mice, bone analyses. The assay is classed as in vivo, mouse. The procedure: (§1) Bone Analyses. μCT and histomorphometry were performed as described (Wei et al., 2012; Wei et al., 2010). Calcein (20 mg/kg) were injected 2 and 10 days before bone collection. For strength measurement, tibiae were tested by 3-point bending, and a strength parameter (peak load at failure) was assessed with a Test Resources DDL200 axial loading machine outfitted with an Interface SMT1-22 force transducer. Cross-head displacement rate was 0.1 mm/sec. Tests were conducted on the mid-diaphyses with the bones resting on two supports 5 mm apart and the tibial anterior margins facing upward toward the actuator. Serum P1NP and CTX-1 were measured with the Rat/Mouse P1NP EIA kit and the RatLaps™ EIA kit, respectively (Immunodiagnostic Systems) (Wei et al., 2012).
(§2) Chronic ICV Injection. Mice were single-housed one week before surgery. After anesthetized with 2-3% isoflurane, a cannula (3300PM/SPC; PlasticsOne) was implanted into the right lateral ventricle (0.3 mm posterior from the bregma, […] lateral from the midline, and 2.4 mm from the surface of skull) using standard sterile stereotactic techniques as described (Funato et al., 2009). An osmotic minipump (model 1004; Alzet) was attached to the cannula and implanted in the subcutaneous space. The OX2R selective agonist ([Ala11, D-Leu15] Orexin-B; American Peptide) (Asahi et al., 2003) or PBS control was continuously injected in the lateral ventricle for 35 days (0.5 nmol/day) before analyses. Ovariectomy or sham operation was performed 3 days before ICV infusion as described (Wei et al., 2011b).

In assay [2] the test system is OVX-induced bone loss in WT female mice. Description: Chronic ICV injection of OX2R agonist in ovariectomy (OVX) mouse model. The class given is in vivo. To be noted: ICV 0.5 nmol/day for 35 days from 3 days after OVX, 6-month-old female mice. The procedure: as §1, §2
For assay [3], the system named is OX2R-KO mice. Description: Chronic ICV injection of OX2R agonist in OX2R-KO mice. The class given is in vivo, mouse. To be noted: ICV 0.5 nmol/day for 35 days. The protocol:
as §1
Chronic ICV Injection. Mice were single-housed one week before surgery. After anesthetized with 2-3% isoflurane, a cannula (3300PM/SPC; PlasticsOne) was implanted into the right lateral ventricle (0.3 mm posterior from the bregma, […] lateral from the midline, and 2.4 mm from the surface of skull) using standard sterile stereotactic techniques as described (Funato et al., 2009). An osmotic minipump (model 1004; Alzet) was attached to the cannula and implanted in the subcutaneous space. […]

For assay [4], the system named is Ob/Ob mice. Description: Chronic ICV injection of OX2R agonist in Ob/Ob mice. The class given is in vivo, mouse. The protocol: as §1, §2
The target in assay [5] is T1, OX1 (Homo sapiens, UniProt O43613).
T1 sequence (O43613 1-425): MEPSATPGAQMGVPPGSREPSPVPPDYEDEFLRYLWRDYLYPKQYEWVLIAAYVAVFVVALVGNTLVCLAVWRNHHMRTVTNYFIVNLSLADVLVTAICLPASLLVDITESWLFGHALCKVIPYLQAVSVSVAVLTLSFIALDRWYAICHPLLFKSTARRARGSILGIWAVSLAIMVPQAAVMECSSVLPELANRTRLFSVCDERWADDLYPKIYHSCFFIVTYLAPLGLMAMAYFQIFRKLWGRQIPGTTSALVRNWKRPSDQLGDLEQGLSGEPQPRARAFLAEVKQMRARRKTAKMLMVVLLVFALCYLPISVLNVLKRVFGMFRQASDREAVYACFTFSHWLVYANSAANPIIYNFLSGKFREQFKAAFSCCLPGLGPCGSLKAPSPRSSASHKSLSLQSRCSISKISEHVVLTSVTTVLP
To be noted: OX1 vs OX2; cited from earlier work.

For assay [6], the target named is T2, orexin receptor type 2 (Homo sapiens, UniProt O43614).
T2 sequence (O43614 1-444): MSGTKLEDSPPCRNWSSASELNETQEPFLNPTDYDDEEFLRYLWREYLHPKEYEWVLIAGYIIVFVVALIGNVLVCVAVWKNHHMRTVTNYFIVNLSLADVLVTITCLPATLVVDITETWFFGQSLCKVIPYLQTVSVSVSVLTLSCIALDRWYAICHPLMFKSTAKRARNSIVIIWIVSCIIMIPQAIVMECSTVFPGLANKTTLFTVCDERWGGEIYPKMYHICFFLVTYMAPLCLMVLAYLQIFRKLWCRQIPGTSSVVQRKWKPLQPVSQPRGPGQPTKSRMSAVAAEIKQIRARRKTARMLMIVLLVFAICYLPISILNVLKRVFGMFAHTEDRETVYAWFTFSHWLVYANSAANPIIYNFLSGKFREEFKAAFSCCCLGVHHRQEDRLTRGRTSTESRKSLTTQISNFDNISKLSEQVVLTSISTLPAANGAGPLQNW
Conditions: type 2 vs type 1; cited from earlier work.

For assay [7], the system named is osteoblast differentiation from WT marrow. Description: Ex vivo bone marrow osteoblast differentiation. The assay is classed as cell-based, mouse. Conditions: 10 nM, vs vehicle control. The protocol: (§3) Ex Vivo Bone Marrow Differentiation. Bone marrow cells were cultured for 4 days in MSC media (Mouse MesenCult® Proliferation Kit, StemCell Technologies), then differentiated into osteoblast with a-MEM containing 10% FBS, 5 mM β-glycerophosphate and 100 μg/ml ascorbic acid for 9 days, or differentiated into adipocytes with adipogenesis medium (MesenCult Basal Medium+Mouse MesenCult Adipogenic Stimulatory Supplement, StemCell Technologies) for 7 days (Wei et al., 2012; Wei et al., 2011a; Wei et al., 2011b). For ghrelin knockdown, siRNA was transfected twice with Fugene HD (Roche) the day before and 3 days after differentiation. Osteoclast differentiation was performed as described (Wan et al., 2007; Wei et al., 2010).

The test system of assay [8] is adipocyte differentiation from WT marrow. Briefly: Ex vivo bone marrow adipocyte differentiation. Conditions: 10 nM, vs vehicle control. The class given is cell-based, mouse. The procedure: as §3
The test system of assay [9] is ghrelin. Briefly: Ghrelin expression and secretion in marrow osteoblast differentiation cultures. The assay is classed as cell-based, mouse. To be noted: 10 nM; for ghrelin induction during osteoblast differentiation: ghrelin mRNA; for ghrelin secretion: osteoblast culture.
The test system of assay [10] is ghrelin. Description: Ghrelin expression and secretion in marrow adipocyte differentiation cultures. The class given is cell-based, mouse. To be noted: for ghrelin expression in adipocyte differentiation cultures: 10 nM, ghrelin mRNA; for ghrelin secretion: adipocyte culture (not shown).
In assay [11] the test system is 3T3-L1 adipocytes. Conditions: cited from earlier work.
Assay [12] relates to insomniacs. Conditions: phase III, three months; cited from earlier work.
Assay [13] addresses T3, orexin-A receptor (Rattus norvegicus, UniProt P56718).
T3 construct: The insula contains orexin-A receptors; from tissue; host or cells: rat brain (insula; whole brain), in vivo
T3 sequence (P56718 1-416): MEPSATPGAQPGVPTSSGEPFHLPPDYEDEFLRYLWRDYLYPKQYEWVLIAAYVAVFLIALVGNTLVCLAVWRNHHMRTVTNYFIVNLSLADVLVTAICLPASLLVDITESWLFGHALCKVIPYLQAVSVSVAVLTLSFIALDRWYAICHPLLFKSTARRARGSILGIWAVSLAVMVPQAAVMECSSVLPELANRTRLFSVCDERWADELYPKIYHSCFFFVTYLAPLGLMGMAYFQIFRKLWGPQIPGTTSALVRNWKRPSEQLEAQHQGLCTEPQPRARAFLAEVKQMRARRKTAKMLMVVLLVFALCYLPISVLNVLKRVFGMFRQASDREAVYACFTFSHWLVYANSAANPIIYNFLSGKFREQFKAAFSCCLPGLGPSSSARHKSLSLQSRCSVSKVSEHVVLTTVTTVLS
Conditions: rats, low doses; cited from earlier work.

[14] abbreviates: ICV 0.5 nmol/day for 35 days, WT male mice, serum.
Setting [15] is: ICV 0.5 nmol/day for 35 days, WT male mice, tibiae μCT.

[Ala11, D-Leu15] Orexin-B [OX2R-AG]: in [1] (ICV 0.5 nmol/day for 35 days, WT male mice), the “bone mass (μCT)” value was “remarkably enhanced”. For the same compound, in assay [1] (setting [14]), the CTX-1 result is on record as “unaltered” and the “P1NP, increased” value came to 100%. In assay [1] (ICV 0.5 nmol/day for 35 days, WT male mice, three-point bending), the “peak load at fracture, higher” value worked out at 11%. Further, in assay [1] (setting [15]), the “BMD, higher” value came out at 8%; the “SMI, lower” value came out at 25%; the “Tb.N, higher” value was determined as 32%; the “Tb.Sp, lower” value was 33%. In assay [1] (setting [15]), the “Tb.Th, higher” value is 30%; the “cortical bone BV/TV, higher” value worked out at 1%; the “cortical bone porosity, less” value is 30%; the “trabecular BV/TV, higher” value was found to be 66%. In assay [1] (ICV injection, WT mice), the serum leptin levels result is recorded as “decreased”. In assay [2], the OVX-induced bone loss result is “attenuated”, the “OVX-mediated increase in CTX-1” value is on record as “not significantly altered”, the “OVX-mediated reduction in P1NP” value was “significantly abolished” and the “OVX-mediated reduction in bone formation rate” value is listed as “rescued”. The “OVX-mediated reduction in osteoblast number” value in assay [2] was “rescued”. Further, in assay [3] (10-week-old OX2R-KO male mice), the “Serum P1NP” value is given as “unaltered”. For the same compound, the bone anabolic effect result in assay [3] (OX2R-KO male mice) was “abolished”. In assay [4], the BV/TV entry was “no longer able to increase”, the Tb.N result is recorded as “no longer able to increase” and the Tb.Sp entry was “no longer able to increase”. The bone enhancing effects result in assay [4] (12 week old male) is reported as “completely abolished”. The P1NP entry in assay [4] (serum) is “no longer able to increase”.
With “orexin-B: Human orexin-B, linear 28 amino acid residue peptide, agonist for mainly OX2R”, in assay [5], the “potency at OX1, less than at OX2” value is 5 times. Besides, in assay [6], the “selectivity for orexin receptor type 2” value is on record as 10 fold.
Regarding `Cc1cc(NC(=O)Nc2ccc(N(C)C)cc2)c2cc(F)cc(F)c2n1` [SB-408124], the osteoblast differentiation entry in [7] was “promoted”. The adipocyte differentiation result in assay [8] is recorded as “attenuated”. In [9], the “ghrelin induction during osteoblast differentiation” value is “potentiated” and the ghrelin secretion entry is on record as “elevated”. In assay [10], the “ghrelin expression in adipocyte differentiation cultures” value is listed as “enhanced” and the ghrelin secretion entry was “elevated”.
“orexin-A: Human orexin-A peptide, 33 amino acid residues, agonist for OX1R and OX2R (QPLPDCCRQKTCSCRLYELLHGAGNHAAGILTL; ends and bridges not checked; cysteine pairing not given here; UniProt O43612 34-66, looked up)”: the osteoblast differentiation entry in [7] is “inhibited”. Besides, the adipocyte differentiation entry in [8] is given as “enhanced”. For the same compound, in assay [9], the “ghrelin induction during osteoblast differentiation” value is “abolished”. The “ghrelin expression in adipocyte differentiation cultures” value in assay [10] was “inhibited”. Further, the “binding to both OX1 and OX2” value in assay [5] is listed as “approximately equal affinity”. In assay [11] (3T3-L1 adipocytes), the glucose uptake entry was “stimulates”. Besides, in assay [11] (adipocytes), the lipogenesis entry is “increases”, the lipolysis entry is “inhibits” and the secretion of adiponectin entry is given as “stimulates”.
With `Cc1ccc(-n2nccn2)c(C(=O)N2CCN(c3nc4cc(Cl)ccc4o3)CC[C@H]2C)c1` [suvorexant], in assay [12], the falling asleep entry is reported as “faster” and the sleep duration entry is listed as “an hour longer”.
In the case of `Cc1nc2ccc(NC(=O)Nc3ccnc4cccnc34)cc2o1` [SB-334,867], in [13], the nicotine self-administration entry is “decreased”.
In the case of `CNC(=O)[C@@H](c1ccccc1)N1CCc2cc(OC)c(OC)cc2[C@@H]1CCc1ccc(C(F)(F)F)cc1` [ACT-078573, almorexant], in assay [7], the osteoblast differentiation entry is given as “promoted”. Also, the adipocyte differentiation result in assay [8] is “attenuated”. Also, in [9], the “ghrelin induction during osteoblast differentiation” value is listed as “potentiated” and the ghrelin secretion result is listed as “elevated”. For the same compound, in [10], the “ghrelin expression in adipocyte differentiation cultures” value was “enhanced” and the ghrelin secretion entry was “elevated”.

These data come from US20160250224A1, “OREXIN-CONTROL OF BONE FORMATION AND LOSS” (THE BOARD OF REGENTS OF THE UNIVERSITY OF TEXAS SYSTEM, priority 2013, published 2016).
